14 compounds from ChEMBL document CHEMBL1155829, “Synthesis and cytotoxic, anti-inflammatory, and anti-oxidant activities of 2',5'-dialkoxylchalcones as cancer chemopreventive agents” (Bioorg Med Chem, 2008) can be followed below.

A short description of assay [1]: Cytotoxicity against human Hep3B cells by MTT assay. The assay is classed as functional, cell-based, Hep 3B2.
Assay [2] concerns HT-29. Description: Cytotoxicity against human HT29 cells by MTT assay. The assay is classed as functional, cell-based. (In general: Tetrazolium dyes change colour on reduction, which living cells bring about.)
Assay [3] deals with MCF7. Description: Cytotoxicity against human MCF7 cells by MTT assay. The assay is classed as functional, cell-based.
The subject of assay [4] is A549. The assay is described as follows: Cytotoxicity against human A549 cells by MTT assay. The assay is classed as functional, cell-based.
Assay [5] has as its system RAW264.7. The assay is described as follows: Antiinflammatory activity against mouse RAW264.7 cells assessed as inhibition of LPS-induced nitric oxide production. The assay is classed as functional, cell-based.
A short description of assay [6]: Antioxidant activity assessed as inhibition of superoxide radical-induced DNA damage of pBR322 at 300 uM after 20 mins by gel electrophoresis. The assay is classed as functional.
In assay [7] the target is Xanthine dehydrogenase/oxidase (Homo sapiens, UniProt P47989). The assay is described as follows: Inhibition of xanthine oxidase.
Assay [8] relates to Radical scavenging activity. The assay is described as follows: Antioxidant activity assessed as DPPH radical scavenging activity. The assay is classed as functional. On the technique in general: The DPPH test is a chemical assay of radical scavenging.
A short description of assay [9]: Inhibition of tubulin polymerization.
Assay [10] relates to RAW264.7. Description: Antiinflammatory activity against mouse RAW264.7 cells assessed as inhibition of LPS-induced TNFalpha formation. The assay is classed as functional, cell-based.
Assay [11] concerns A549. The assay is described as follows: Cell cycle arrest in human A549 cells assessed as accumulation at S phase at 0.1 uM after 24 hrs by flow cytometry. The assay is classed as functional.
Assay [12] has as its system A549. Description: Cell cycle arrest in human A549 cells assessed as accumulation at G2/M phase at 0.1 uM after 24 hrs by flow cytometry. The assay is classed as functional. A general note: In flow cytometry, cells or beads pass a laser one at a time.
Assay [13] has as its system A549. Description: Cell cycle arrest in human A549 cells assessed as accumulation at G2/M phase at 0.03 uM after 24 hrs by flow cytometry. The assay is classed as functional.
For assay [14], the system named is A549. The assay is described as follows: Cell cycle arrest in human A549 cells assessed as accumulation at S phase at 10 uM after 24 hrs by flow cytometry. The assay is classed as functional.
Assay [15] concerns A549. Description: Cell cycle arrest in human A549 cells assessed as accumulation at G1 phase at 10 uM after 24 hrs by flow cytometry. The assay is classed as functional.
The subject of assay [16] is A549. Description: Cell cycle arrest in human A549 cells assessed as accumulation at G1 phase at 0.1 uM after 24 hrs by flow cytometry. The assay is classed as functional.
Assay [17] relates to A549. The assay is described as follows: Cell cycle arrest in human A549 cells assessed as accumulation at G1 phase at 0.03 uM after 24 hrs by flow cytometry. The assay is classed as functional.
Assay [18] has as its system A549. The assay is described as follows: Cell cycle arrest in human A549 cells assessed as accumulation at S phase at 0.03 uM after 24 hrs by flow cytometry. The assay is classed as functional.
Assay [19] concerns A549. The assay is described as follows: Cell cycle arrest in human A549 cells assessed as accumulation at G2/M phase at 10 uM after 24 hrs by flow cytometry. The assay is classed as functional.

The source made the active and inactive calls. No cut-off for these calls is given here.

Chain of Xanthine dehydrogenase/oxidase (P47989 whole entry): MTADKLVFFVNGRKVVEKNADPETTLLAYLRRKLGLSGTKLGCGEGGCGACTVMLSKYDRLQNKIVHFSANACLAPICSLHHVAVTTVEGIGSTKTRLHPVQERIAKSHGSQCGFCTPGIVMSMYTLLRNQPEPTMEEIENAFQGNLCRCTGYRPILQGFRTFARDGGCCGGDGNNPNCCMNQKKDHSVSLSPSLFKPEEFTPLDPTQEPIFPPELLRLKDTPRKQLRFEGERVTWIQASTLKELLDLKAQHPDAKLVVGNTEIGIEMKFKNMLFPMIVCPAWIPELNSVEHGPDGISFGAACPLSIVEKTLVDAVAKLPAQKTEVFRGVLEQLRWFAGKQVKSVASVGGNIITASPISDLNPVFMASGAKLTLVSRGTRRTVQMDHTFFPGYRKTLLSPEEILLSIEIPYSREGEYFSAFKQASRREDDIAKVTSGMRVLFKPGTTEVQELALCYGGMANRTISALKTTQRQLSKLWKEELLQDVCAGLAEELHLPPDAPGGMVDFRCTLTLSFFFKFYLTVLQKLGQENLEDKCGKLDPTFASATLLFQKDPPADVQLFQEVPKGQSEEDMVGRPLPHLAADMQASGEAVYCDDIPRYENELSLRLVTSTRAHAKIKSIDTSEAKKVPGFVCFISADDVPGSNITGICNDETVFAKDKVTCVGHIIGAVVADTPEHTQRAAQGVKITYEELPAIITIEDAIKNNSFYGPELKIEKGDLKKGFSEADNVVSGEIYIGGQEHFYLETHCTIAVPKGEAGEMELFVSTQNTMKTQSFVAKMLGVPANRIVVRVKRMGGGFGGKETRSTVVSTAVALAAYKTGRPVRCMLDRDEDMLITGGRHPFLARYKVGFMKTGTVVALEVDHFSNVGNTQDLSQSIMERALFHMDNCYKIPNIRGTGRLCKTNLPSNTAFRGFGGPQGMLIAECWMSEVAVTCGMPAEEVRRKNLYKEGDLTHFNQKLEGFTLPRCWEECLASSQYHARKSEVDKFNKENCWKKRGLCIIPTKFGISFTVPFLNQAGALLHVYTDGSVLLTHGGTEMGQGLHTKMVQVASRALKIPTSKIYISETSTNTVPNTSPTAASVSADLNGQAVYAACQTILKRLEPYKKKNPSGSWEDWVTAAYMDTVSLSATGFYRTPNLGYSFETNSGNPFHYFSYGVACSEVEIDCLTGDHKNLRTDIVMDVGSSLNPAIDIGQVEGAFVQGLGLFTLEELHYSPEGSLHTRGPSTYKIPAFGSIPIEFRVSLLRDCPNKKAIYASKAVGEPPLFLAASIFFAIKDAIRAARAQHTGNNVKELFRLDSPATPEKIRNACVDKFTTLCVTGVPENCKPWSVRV

On to `Cc1ccc(/C=C/C(=O)c2cc(OC(C)C)ccc2O)s1`, for which the IC50 was found to be 81.7 µM in assay [1], 30.2 µM in [2] and 15.5 µM in assay [3].

Regarding `COc1ccc(O)c(C(=O)/C=C/c2ccc(C)s2)c1`, the IC50 amounted to 87.5 µM in assay [1], 71.5 µM in assay [2] and 34.6 µM in assay [3].

As to `CCCCOc1ccc(O)c(C(=O)/C=C/c2ccc(C)s2)c1`, the IC50 in assay [1] was determined as 91.7 µM; in assay [2], 71.4 µM; in [3], 38.9 µM.

For the compound `Cc1ccc(/C=C/C(=O)c2ccc(O)c(O)c2O)s1`, inhibition in assay [2] was half-maximal at 35.9 µM (IC50).

On to `O=c1[nH]cc(F)c(=O)[nH]1` [FLUOROURACIL], for which, in [1], inhibition was half-maximal at 0.6 µM (IC50).

Turning to `CCOc1ccc(O)c(C(=O)/C=C/c2ccc(C)s2)c1`, the results for the IC50 in [1], in assay [2] and in assay [3] were 90.2 µM, 43.4 µM and 23.2 µM, respectively.

As for `CCCOc1ccc(O)c(C(=O)/C=C/c2ccc(C)s2)c1`, the IC50 in [1] was 23.2 µM; in assay [2], 126 µM; in assay [3], 21.5 µM.

In the case of `CCCCCOc1ccc(O)c(C(=O)/C=C/c2ccc(C)s2)c1`, the values for the IC50 in assay [1], in assay [2] and in [3] were 112 µM, 86.9 µM and 48.4 µM, respectively.

Turning to `CCOc1ccc(OCC)c(C(=O)/C=C/c2ccc(C)s2)c1`, the IC50 was found to be 4.4 µM in assay [4]; 31.6 µM in assay [1]; 3.2 µM in assay [2]; 1.4 µM in assay [3]; 16.5 µM in [5]; 21.3 µM in assay [7]. The result in assay [6] was Active. In addition, the outcome in [8] was inactive.

Turning to `COc1ccc(C(=O)/C=C/c2ccc(C)s2)c(O)c1O`, the IC50 in assay [1] is 10.7 µM; in assay [2], 53.4 µM; in assay [3], 20.7 µM.

Regarding `CCCOc1ccc(OC)cc1C(=O)/C=C/c1ccc(C)s1`, the half-maximal inhibitory concentration (IC50) stood at 7 µM in [1], 86.6 µM in assay [2] and 0.8 µM in [3].

Take `Cc1ccc(/C=C/C(=O)c2cc(OCC(C)C)ccc2O)s1`: the IC50 in assay [1] worked out at 54.4 µM; in assay [2], 30.7 µM; in [3] it was 13 µM.

In the case of `CCCCOc1ccc(OC)cc1C(=O)/C=C/c1ccc(C)s1`, the IC50 came to 10.7 µM in assay [1], 61.1 µM in [2], 13.9 µM in [3] and 28 µM in assay [5].

For the compound `CCOc1ccc(OC)cc1C(=O)/C=C/c1ccc(C)s1`, the result in assay [9] and in assay [6] was Active. Moreover, the IC50 was determined as 6.3 µM in assay [4]; 0.2 µM in [1]; 0.1 µM in assay [2]; 0.4 µM in assay [10]; 2.3 µM in assay [3]; 131 µM in [7]. In addition, the Activity in [11] is on record as 28.384%; in [12] it was 5.698%; in [13], 2.104%; in assay [14], 24.271%; in assay [15], 64.102%; in [16], 65.919%. In addition, the values for the Activity in assay [17], in assay [18] and in assay [19] were 70.207%, 27.69% and 11.627%, respectively. Also, the outcome in [8] was inactive.

As usually defined, the IC50 is the point on the concentration scale where inhibition reaches its midpoint.
